From patent US20240158446A1, “CYCLIC COMPOUND HAVING SELECTIVE INHIBITORY ACTION ON KRAS OVER HRAS AND NRAS” (CHUGAI SEIYAKU KABUSHIKI KAISHA, priority 2021, published 2024)
Where a SMILES comes first, the peptide text is derived from it. Bridges are numbered along the chain shown (N, C = ends). [ ]: non-standard residue; d: D form. The star is where a group is joined. hPhe(3-Cl-4-CF3) = N[C@@H](CCc1ccc(C(F)(F)F)c(Cl)c1)C(=O)O; NPrPhe(4-CF3) = CCCN[C@@H](Cc1ccc(C(F)(F)F)cc1)C(=O)O; NMeGly(cPent) = CN[C@H](C(=O)O)C1CCCC1; NMeD = CN[C@@H](CC(=O)O)C(=O)O; NMeL = CN[C@@H](CC(C)C)C(=O)O; Morpholide = C1CN(*)CCO1; Ac5c = NC1(C(=O)O)CCCC1; Sar = CNCC(=O)O

Tests used:
[1] = system: human lung cancer strain NCI-H441; experiment: cells; details: NCI-H441, 96 h, read-out: NCI-H441 IC50 (nM), NCI-H441 cell proliferation, 4 days, CellTiter-Glo;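 note: cell proliferation inhibition after four days measured by CellTiter-Glo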
[2] = biological target: GDP-bound KRAS wild-type protein (Homo sapiens, UniProt P01116); experiment: Binding to KRAS by surface plasmon resonance (SPR), Single Cycle Kinetics; details: SPR, Single Cycle Kinetics, GDP-bound KRAS wild-type protein; read-out: KRAS KD
[3] = biological target: GDP-bound NRAS wild-type protein (Homo sapiens, UniProt P01111); experiment: Binding to NRAS by surface plasmon resonance (SPR), Single Cycle Kinetics; details: ratio of KD for GDP-bound NRAS wild-type protein to KD for KRAS, SPR
[4] = biological target: GDP-bound HRAS wild-type protein (Homo sapiens, UniProt P01112); experiment: Binding to HRAS by surface plasmon resonance (SPR), Single Cycle Kinetics; details: ratio of KD for GDP-bound HRAS wild-type protein to KD for KRAS, SPR
GDP-bound HRAS wild-type protein, sequence (P01112 whole entry): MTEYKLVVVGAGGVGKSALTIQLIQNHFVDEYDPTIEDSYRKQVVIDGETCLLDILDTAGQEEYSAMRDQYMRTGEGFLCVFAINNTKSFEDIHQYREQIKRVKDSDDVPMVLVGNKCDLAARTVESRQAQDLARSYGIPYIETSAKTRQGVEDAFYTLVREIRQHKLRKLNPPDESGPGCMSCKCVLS

GDP-bound NRAS wild-type protein, sequence (P01111 whole entry): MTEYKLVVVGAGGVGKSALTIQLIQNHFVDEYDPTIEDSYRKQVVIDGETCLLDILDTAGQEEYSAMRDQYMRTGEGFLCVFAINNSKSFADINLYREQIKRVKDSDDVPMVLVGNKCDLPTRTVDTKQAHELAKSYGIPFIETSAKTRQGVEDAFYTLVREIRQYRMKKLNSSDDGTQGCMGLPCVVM
GDP-bound KRAS wild-type protein, sequence (P01116 whole entry): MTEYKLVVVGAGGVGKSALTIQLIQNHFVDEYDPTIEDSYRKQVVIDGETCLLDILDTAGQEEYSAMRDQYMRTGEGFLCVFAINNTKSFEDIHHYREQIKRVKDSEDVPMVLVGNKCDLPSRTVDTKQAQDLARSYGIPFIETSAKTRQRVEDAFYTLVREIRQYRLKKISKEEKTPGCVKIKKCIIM

| SMILES | IC50 [1] [nM] | Kd [2] [nM] | NRAS/KRAS (KD ratio) [3] | HRAS/KRAS (KD ratio) [4] |
| --- | --- | --- | --- | --- |
| CCO[C@@H]1C[C@H]2C(=O)NC3(CC(C)(C)C3)C(=O)N(C)[C@@H](C3CCCC3)C(=O)N(C)[C@H](C(=O)N(C)C)CC(=O)N(C)[C@@H](COC)C(=O)N[C@@H]([C@@H](C)CC)C(=O)N(C)CC(=O)N(C)[C@H]3C/C=C\CCN(C3=O)[C@@H](Cc3ccc(C(F)(F)F)cc3)C(=O)N(C)CC(=O)N[C@@H](CCc3ccc(C(F)(F)F)c(Cl)c3)C(=O)N2C1 [PP1753] | 5.9 | 0.038 | A (a compound having 10 or more and less than 20 is denoted as A) | A (a compound having 10 or more and less than 20 is denoted as A) |
| CCO[C@@H]1C[C@H]2C(=O)NC3(CCC3)C(=O)N(C)[C@@H](C(CC)CC)C(=O)N(C)[C@H](CC)CC(=O)N(C)[C@@H](CC3CC3)C(=O)N[C@@H]([C@@H](C)CC)C(=O)N(C)CC(=O)N(C)[C@H]3C/C=C\CCN(C3=O)[C@@H](Cc3ccc(C(F)(F)F)cc3)C(=O)N(C)CC(=O)N[C@@H](CCc3cc(F)c(C(F)(F)F)c(F)c3)C(=O)N2C1 [PP1630] | 144 | 1.8 | A (a compound having 10 or more and less than 20 is denoted as A) | A (a compound having 10 or more and less than 20 is denoted as A) |
| CCO[C@@H]1C[C@H]2C(=O)N(C)C3(CCC3)C(=O)N(C)[C@@H](C3CCCC3)C(=O)N(C)[C@H](C(=O)N(C)C)CC(=O)N(C)[C@@H](C3CC3)C(=O)N[C@@H]([C@@H](C)CC)C(=O)N(C)CC(=O)N(C)[C@H]3C/C=C\CCN(C3=O)[C@@H](Cc3ccc(C)cc3)C(=O)N(C)CC(=O)N[C@@H](CCc3cc(F)c(C(F)(F)F)c(F)c3)C(=O)N2C1 [PP1783] | 3.5 | 0.028 | A (a compound having 10 or more and less than 20 is denoted as A) | B (a compound having 3 or more and less than 10 is denoted as B) |
| CCCN1C(=O)CN(C)C(=O)[C@H](C)NC(=O)[C@H]([C@@H](C)CC)NC(=O)[C@H](CC(C)C)N(C)C(=O)C[C@@H](C(=O)N2CCOCC2)N(C)C(=O)[C@H](C2CCCC2)N(C)C(=O)C2(CCCC2)NC(=O)[C@@H]2CCCN2C(=O)[C@H](CCc2ccc(C(F)(F)F)c(Cl)c2)NC(=O)CN(C)C(=O)[C@@H]1Cc1ccc(C(F)(F)F)cc1 [PP1971] ([NMeL]IA[Sar][NPrPhe(4-CF3)][Sar][hPhe(3-Cl-4-CF3)]P[Ac5c][NMeGly(cPent)][NMeD]-Morpholide; lactam N-11) | 38 | 5 | B (a compound having 3 or more and less than 10 is denoted as B) | B (a compound having 3 or more and less than 10 is denoted as B) |
| CC[C@H](C)[C@@H]1NC(=O)[C@H](CC)N(C)C(=O)C[C@@H](C(=O)N(C)C)N(C)C(=O)[C@H](C2CCCC2)N(C)C(=O)C2(CCC2)NC(=O)[C@@H]2CCCN2C(=O)[C@H](CCc2cc(C)c(Cl)c(C)c2)NC(=O)CN(C)C(=O)[C@H](Cc2ccc(C(F)(F)F)cc2)N2CC/C=C\C[C@@H](C2=O)N(C)C(=O)CN(C)C1=O [PP1822] | 107 | 1.1 | A (a compound having 10 or more and less than 20 is denoted as A) | B (a compound having 3 or more and less than 10 is denoted as B) |
| CCCN(C)C(=O)[C@@H]1CC(=O)N(C)[C@@H](COCC)C(=O)N[C@@H]([C@@H](C)CC)C(=O)N(C)CC(=O)N(C)[C@H]2C/C=C\CCN(C2=O)[C@@H](Cc2ccc(C(F)(F)F)cc2)C(=O)N(C)CC(=O)N[C@@H](CCc2ccc(C(F)(F)F)c(OC)c2)C(=O)N2C[C@H](OCC)C[C@H]2C(=O)NC2(CC(C)(C)C2)C(=O)N(C)[C@@H](C2CCCC2)C(=O)N1C [PP2012] | 11.6 | 0.097 | AA (a compound having 20 or more is denoted as AA) | A (a compound having 10 or more and less than 20 is denoted as A) |
| CCOC[C@H]1C(=O)N[C@@H]([C@@H](C)CC)C(=O)N(C)CC(=O)N(C)[C@H]2C/C=C\CCN(C2=O)[C@@H](Cc2ccc(C(F)(F)F)cc2)C(=O)N(C)CC(=O)N[C@@H](CCc2ccc(C(F)(F)F)c(OC)c2)C(=O)N2C[C@@H](C)C[C@H]2C(=O)NC2(CC(C)(C)C2)C(=O)N(C)[C@@H](C2CCCC2)C(=O)N(C)[C@H](C(=O)N(C)CC)CC(=O)N1C [PP1993] | 13.3 | 0.12 | A (a compound having 10 or more and less than 20 is denoted as A) | A (a compound having 10 or more and less than 20 is denoted as A) |
| CCCN(C)C(=O)[C@@H]1CC(=O)N(C)[C@@H](CCOC)C(=O)N[C@@H]([C@@H](C)CC)C(=O)N(C)CC(=O)N(C)[C@H]2C/C=C\CCN(C2=O)[C@@H](Cc2ccc(C(F)(F)F)cc2)C(=O)N(C)CC(=O)N[C@@H](CCc2ccc(C(F)(F)F)c(OC)c2)C(=O)N2C[C@@H](C)C[C@H]2C(=O)NC2(CC(C)(C)C2)C(=O)N(C)[C@@H](C2CCCC2)C(=O)N1C [PP2001] | 18.1 | 0.11 | A (a compound having 10 or more and less than 20 is denoted as A) | A (a compound having 10 or more and less than 20 is denoted as A) |

Now from value to molecule, other results behind:

| IC50 [1] [nM] | Kd [2] [nM] | SMILES | NRAS/KRAS (KD ratio) [3] | HRAS/KRAS (KD ratio) [4] |
| --- | --- | --- | --- | --- |
| 20.6 | 0.2 | CCCN(C)C(=O)[C@@H]1CC(=O)N(C)[C@@H](COC)C(=O)N[C@@H]([C@@H](C)CC)C(=O)N(C)CC(=O)N(C)[C@H]2C/C=C\CCN(C2=O)[C@@H](Cc2ccc(C(F)(F)F)cc2)C(=O)N(C)CC(=O)N[C@@H](CCc2cc(F)c(C(F)(F)F)c(F)c2)C(=O)N2CCC[C@H]2C(=O)NC2(CC(C)(C)C2)C(=O)N(C)[C@@H](C2CCCC2)C(=O)N1C [PP1729] | AA (a compound having 20 or more is denoted as AA) | A (a compound having 10 or more and less than 20 is denoted as A) |
| 50 | 0.18 | CCCN(C)C(=O)[C@@H]1CC(=O)N(C)[C@@H](CCOC)C(=O)N[C@@H]([C@@H](C)CC)C(=O)N(C)CC(=O)N(C)[C@H]2C/C=C\CCN(C2=O)[C@@H](Cc2ccc(C(F)(F)F)cc2)C(=O)N(C)CC(=O)N[C@@H](CCc2cc(F)c(C(F)(F)F)c(F)c2)C(=O)N2C[C@@H](C)C[C@H]2C(=O)NC2(CC(C)(C)C2)C(=O)N(C)[C@@H](C2CCCC2)C(=O)N1C [PP1974] | A (a compound having 10 or more and less than 20 is denoted as A) | A (a compound having 10 or more and less than 20 is denoted as A) |
| 2.1 | 0.11 | CCO[C@@H]1C[C@H]2C(=O)NC3(CC(C)(C)C3)C(=O)N(C)[C@@H](C3CCCC3)C(=O)N(C)[C@H](C(=O)N(C)CC)CC(=O)N(C)[C@@H](CC3CC3)C(=O)N[C@@H]([C@@H](C)CC)C(=O)N(C)CC(=O)N(C)[C@H]3C/C=C\CCN(C3=O)[C@@H](Cc3ccc(C(F)(F)F)cc3)C(=O)N(C)CC(=O)N[C@@H](CCc3cc(F)c(C(F)(F)F)c(F)c3)C(=O)N2C1 [PP1648] | A (a compound having 10 or more and less than 20 is denoted as A) | A (a compound having 10 or more and less than 20 is denoted as A) |
| 5.1 | 0.076 | CCCN(C)C(=O)[C@@H]1CC(=O)N(C)[C@@H](COC)C(=O)N[C@@H]([C@@H](C)CC)C(=O)N(C)CC(=O)N(C)[C@H]2C/C=C\CCN(C2=O)[C@@H](Cc2ccc(C(F)(F)F)cc2)C(=O)N(C)CC(=O)N[C@@H](CCc2cc(F)c(C(F)(F)F)c(F)c2)C(=O)N2C[C@H](OCC)C[C@H]2C(=O)NC2(CC(F)(F)C2)C(=O)N(C)[C@@H](C2CCCC2)C(=O)N1C [PP1743] | AA (a compound having 20 or more is denoted as AA) | A (a compound having 10 or more and less than 20 is denoted as A) |
| 4.3 | 0.11 | CC[C@H](C)[C@@H]1NC(=O)[C@H](CC2CC2)N(C)C(=O)C[C@@H](C(=O)N(C)C)N(C)C(=O)[C@H](C2CCCC2)N(C)C(=O)C2(CC(C)(C)C2)NC(=O)[C@@H]2C[C@H](C)CN2C(=O)[C@H](CCc2cc(F)c(C(F)(F)F)c(F)c2)NC(=O)CN(C)C(=O)[C@H](Cc2ccc(C(F)(F)F)cc2)N2CC/C=C\C[C@@H](C2=O)N(C)C(=O)CN(C)C1=O [PP1660] | A (a compound having 10 or more and less than 20 is denoted as A) | A (a compound having 10 or more and less than 20 is denoted as A) |
| 3.6 | 0.11 | CCCN(C)C(=O)[C@@H]1CC(=O)N(C)[C@@H](CC(F)F)C(=O)N[C@@H]([C@@H](C)CC)C(=O)N(C)CC(=O)N(C)[C@H]2C/C=C\CCN(C2=O)[C@@H](Cc2ccc(C(F)(F)F)cc2)C(=O)N(C)CC(=O)N[C@@H](CCc2cc(F)c(C(F)(F)F)c(F)c2)C(=O)N2C[C@H](OCC)C[C@H]2C(=O)NC2(CCC2)C(=O)N(C)[C@@H](C2CCCC2)C(=O)N1C [PP1700] | A (a compound having 10 or more and less than 20 is denoted as A) | A (a compound having 10 or more and less than 20 is denoted as A) |
| 32.5 | 0.32 | CCO[C@@H]1C[C@H]2C(=O)NC3(CCC3)C(=O)N(C)[C@@H](C3CCCC3)C(=O)N(C)[C@H](C3CCC3)CC(=O)N(C)[C@@H](CC3CC3)C(=O)N[C@@H]([C@@H](C)CC)C(=O)N(C)CC(=O)N(C)[C@H]3C/C=C\CCN(C3=O)[C@@H](Cc3ccc(C(F)(F)F)cc3)C(=O)N(C)CC(=O)N[C@@H](CCc3cc(F)c(C(F)(F)F)c(F)c3)C(=O)N2C1 [PP1637] | A (a compound having 10 or more and less than 20 is denoted as A) | A (a compound having 10 or more and less than 20 is denoted as A) |
